Measurements taken from patent US20160376240A1, “6 Phenyl or 6 Pyridin 3 YL Indazole Derivatives and Methods of Use” (ABBVIE INC., priority 2014, published 2016).
pIC50: −log10 of the molar value.

Key:
Format in all cases: biochemical
TrkB = biological target: T1, TrkB (Homo sapiens, UniProt Q16620); experiment: TrkB kinase inhibition, HTRF assay; conditions: LCK peptide substrate, assay ATP concentration targeted 5 μM
T1 construct: purchased Invitrogen PV3616
Method: (§1) TrkA, TrkB, and TrkC enzymes were obtained from Invitrogen (as catalog numbers PV3144, PV3616, and PV3617, respectively). The ability of a compound to inhibit the enzymatic activity of the TrkA, TrkB, and TrkC enzymes was determined in separate assays. Enzyme activity was measured in an HTRF® (homogeneous time resolved fluorescence) assay, which detects enzymatic phosphorylation of a biotinylated synthetic peptide substrate (an LCK peptide analog, biotin-ahx-GAEEEIYAAFFA, from Genemed Synthesis). Phosphorylation is assessed by HTRF® in the presence of an anti-phosphotyrosine antibody conjugated to Eu^3+ cryptate (Cisbio) as donor fluorophore, and streptavidin conjugated to allophycocyanin (ProZyme) as acceptor fluorophore. The HTRF® signal was detected at two different wavelengths (620 nm and 665 nm) which were used to calculate the fluorescence ratio.
(§2) Each enzyme was titrated to a concentration optimized to ensure accurate measurement of the initial reaction rate. To allow the Trk enzymes to undergo activation and auto-phosphorylation, a 20 minute pre-incubation with ATP was carried out (at twice the final targeted enzyme and ATP concentration) prior to addition of test compound and the peptide substrate.
(§3) TrkA in vitro assays were performed by pre-incubating TrkA (2-10 nM) with ATP (200 μM) for 20 minutes at ambient temperature in 50 mM HEPES pH 7.4, 10 mM MgCl2, 2 mM MnCl2, 100 μM Na3VO4, 1 mM dithiothreitol, 0.01% BSA (bovine serum albumin). Then, to the activated Trk enzyme mixture was added the test compound in 2% dimethyl sulfoxide. After 10 minutes, the peptide substrate (125 nM) was added. After 1 hour, enzyme reactions were terminated by addition of equal reaction volumes of detection/stop reagent (containing 0.2 μg/mL anti-phosphotyrosine monoclonal antibody labeled with europium from Cisbio (catalog# PT66-K), and 4 μg/mL PhycoLink® Streptavidin-Allophycocyanin conjugate from ProZyme (catalog# PJ25S) in 60 mM EDTA in 40 mM HEPES pH 7.4, 480 mM KF, 0.01% Tween® 20 and 0.1% BSA bovine serum albumin) Reaction plates were stored at 4° C. overnight before reading the fluorescence ratio signal on a PerkinElmer EnVision™ fluorescence detector. Individual reaction wells were stopped at time points to obtain reaction rates. The test inhibitor compounds were assayed in duplicate, at half-log serial dilutions over a range of concentrations (e.g. starting at 50 μM or 5 μM as the high compound concentration). The percent Trk enzyme inhibition was calculated from the initial rates of the inhibited reactions relative to the uninhibited control. IC50 values were calculated by fitting the inhibition percent to the concentration of inhibitor [I] in the assay in equation 1 below, to solve for the IC50.
(§4) Inhibition %=100[I]/([I]+[IC50]) equation 1
(§5) The TrkB and TrkC in vitro assays were performed as described above, except that for these enzymes the assay ATP concentration targeted was 5 μM.

TrkC = biological target: T2, TrkC (Homo sapiens, UniProt Q16288); experiment: TrkC kinase inhibition, HTRF assay; conditions: LCK peptide substrate, assay ATP concentration targeted 5 μM
T2 construct: purchased Invitrogen PV3617
Method: as §1, §2, §3, §4, §5

TrkA = biological target: T3, TrkA (Homo sapiens, UniProt P04629); experiment: TrkA kinase inhibition, HTRF assay; conditions: LCK peptide substrate 125 nM, TrkA 2-10 nM pre-incubated with ATP 200 μM
T3 construct: purchased Invitrogen PV3144
Procedure, shortened: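 TrkA (2-10 nM) preactivated 20 min with 200 μM ATP in HEPES pH 7.4 with Mg2+/Mn2+, then compound for 10 min, then 125 nM biotinylated LCK-peptide for 1 h at ambient temperature. HTRF 665/620 ratio read; IC50 fitted from initial-rate percent inhibition.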

T1 sequence (Q16620 32-822): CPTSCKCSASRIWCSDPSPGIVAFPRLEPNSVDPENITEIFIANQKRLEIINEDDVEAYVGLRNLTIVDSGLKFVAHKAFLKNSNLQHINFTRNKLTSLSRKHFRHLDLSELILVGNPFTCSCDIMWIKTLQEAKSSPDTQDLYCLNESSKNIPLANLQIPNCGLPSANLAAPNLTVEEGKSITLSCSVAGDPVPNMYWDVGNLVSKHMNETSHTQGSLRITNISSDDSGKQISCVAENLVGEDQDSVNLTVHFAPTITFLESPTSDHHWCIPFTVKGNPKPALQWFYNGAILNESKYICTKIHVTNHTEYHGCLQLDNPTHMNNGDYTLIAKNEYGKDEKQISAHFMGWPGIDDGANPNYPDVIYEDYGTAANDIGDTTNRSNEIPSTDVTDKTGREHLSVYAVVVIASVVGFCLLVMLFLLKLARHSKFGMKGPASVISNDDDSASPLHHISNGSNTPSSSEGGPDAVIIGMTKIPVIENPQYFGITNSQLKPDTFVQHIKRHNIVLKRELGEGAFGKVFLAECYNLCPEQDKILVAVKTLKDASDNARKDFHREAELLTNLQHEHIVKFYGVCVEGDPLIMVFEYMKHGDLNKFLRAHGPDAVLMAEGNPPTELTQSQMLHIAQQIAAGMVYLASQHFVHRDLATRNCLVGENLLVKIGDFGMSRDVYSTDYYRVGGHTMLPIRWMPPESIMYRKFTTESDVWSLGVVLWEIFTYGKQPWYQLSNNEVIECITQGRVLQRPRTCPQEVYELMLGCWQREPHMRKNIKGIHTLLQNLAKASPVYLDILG
T3 sequence (P04629 33-796): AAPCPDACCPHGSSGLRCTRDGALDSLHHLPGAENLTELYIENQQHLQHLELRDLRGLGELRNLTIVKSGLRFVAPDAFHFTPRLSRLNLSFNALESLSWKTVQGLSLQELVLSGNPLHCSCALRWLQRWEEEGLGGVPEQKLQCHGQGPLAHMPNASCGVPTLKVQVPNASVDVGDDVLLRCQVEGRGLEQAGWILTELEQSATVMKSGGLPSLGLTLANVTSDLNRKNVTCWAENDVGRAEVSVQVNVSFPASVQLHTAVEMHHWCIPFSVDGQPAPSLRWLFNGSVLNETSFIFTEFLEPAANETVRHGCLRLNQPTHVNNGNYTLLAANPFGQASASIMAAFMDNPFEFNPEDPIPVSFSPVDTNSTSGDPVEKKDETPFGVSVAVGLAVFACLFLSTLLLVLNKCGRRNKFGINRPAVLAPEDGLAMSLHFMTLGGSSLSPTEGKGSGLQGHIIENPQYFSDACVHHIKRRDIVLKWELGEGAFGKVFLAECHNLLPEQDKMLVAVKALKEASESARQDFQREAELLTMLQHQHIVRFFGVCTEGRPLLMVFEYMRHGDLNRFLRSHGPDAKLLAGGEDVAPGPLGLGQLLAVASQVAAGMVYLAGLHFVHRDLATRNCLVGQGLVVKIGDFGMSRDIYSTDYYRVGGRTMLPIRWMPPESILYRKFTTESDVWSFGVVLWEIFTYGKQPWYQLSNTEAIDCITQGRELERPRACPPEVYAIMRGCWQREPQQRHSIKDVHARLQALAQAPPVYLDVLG
T2 sequence (Q16288 32-839): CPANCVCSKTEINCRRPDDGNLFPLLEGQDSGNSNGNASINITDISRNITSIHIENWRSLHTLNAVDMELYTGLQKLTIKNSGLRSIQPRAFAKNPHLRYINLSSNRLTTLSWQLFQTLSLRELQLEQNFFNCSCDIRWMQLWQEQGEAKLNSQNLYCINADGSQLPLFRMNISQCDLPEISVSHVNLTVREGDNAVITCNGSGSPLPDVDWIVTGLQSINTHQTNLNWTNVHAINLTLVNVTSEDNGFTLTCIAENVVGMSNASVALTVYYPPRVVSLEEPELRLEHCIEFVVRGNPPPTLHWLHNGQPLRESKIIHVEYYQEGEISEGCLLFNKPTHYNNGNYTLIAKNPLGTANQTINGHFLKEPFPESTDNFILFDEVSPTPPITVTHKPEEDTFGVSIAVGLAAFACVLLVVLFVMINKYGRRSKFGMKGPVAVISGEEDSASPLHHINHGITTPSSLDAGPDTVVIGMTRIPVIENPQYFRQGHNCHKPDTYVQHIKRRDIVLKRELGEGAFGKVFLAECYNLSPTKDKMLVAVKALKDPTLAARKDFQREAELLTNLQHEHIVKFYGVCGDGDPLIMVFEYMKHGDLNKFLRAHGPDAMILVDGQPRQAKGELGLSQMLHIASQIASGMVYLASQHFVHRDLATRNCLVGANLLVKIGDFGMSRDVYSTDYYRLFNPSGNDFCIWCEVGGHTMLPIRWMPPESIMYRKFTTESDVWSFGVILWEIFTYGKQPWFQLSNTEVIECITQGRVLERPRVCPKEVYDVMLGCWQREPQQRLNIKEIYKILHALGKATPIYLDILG

Molecule `NC(=O)c1ccc(-c2cc(OC3CCOCC3)c3c(N)n[nH]c3c2)cc1N1CCN(c2ccccc2)CC1` [Example 1, 4-[3-amino-4-(tetrahydro-2H-pyran-4-yloxy)-1H-indazol-6-yl]-2-(4-phenylpiperazin-1-yl)benzamide] has a pIC50 (TrkB) of 9.10, a pIC50 (TrkC) of 8.99 and a pIC50 (TrkA) of 8.58.
`NC(=O)c1ccc(-c2cc(OC3CCOCC3)c3c(N)n[nH]c3c2)cc1N1CCN(c2cccnc2)CC1` [Example 2, 4-[3-amino-4-(tetrahydro-2H-pyran-4-yloxy)-1H-indazol-6-yl]-2-[4-(pyridin-3-yl)piperazin-1-yl]benzamide] was tested, and the pIC50 (TrkB) was 8.51, the pIC50 (TrkC) was 8.41 and the pIC50 (TrkA) was 8.13.
`NC(=O)c1ccc(-c2cc(OC3CCOCC3)c3c(N)n[nH]c3c2)cc1N1CCN(C2CC2)CC1` [Example 3, 4-[3-amino-4-(tetrahydro-2H-pyran-4-yloxy)-1H-indazol-6-yl]-2-(4-cyclopropylpiperazin-1-yl)benzamide] was tested, and the pIC50 (TrkB) was 7.69, the pIC50 (TrkC) was 7.59 and the pIC50 (TrkA) was 7.26.
`COc1cncnc1N1CCN(c2cc(-c3cc(OC4CCOCC4)c4c(N)n[nH]c4c3)ccc2C(N)=O)CC1` [Example 6, 4-[3-amino-4-(tetrahydro-2H-pyran-4-yloxy)-1H-indazol-6-yl]-2-[4-(5-methoxypyrimidin-4-yl)piperazin-1-yl]benzamide] gave a pIC50 (TrkB) of 7.82, a pIC50 (TrkC) of 7.63 and a pIC50 (TrkA) of 7.38.
In the case of `Nc1n[nH]c2cc(-c3ccc(C(=O)NC4CC4)c(N4CCN(c5ccccc5)CC4)c3)cc(OC3CCOCC3)c12` [Example 23, 4-[3-amino-4-(tetrahydro-2H-pyran-4-yloxy)-1H-indazol-6-yl]-N-cyclopropyl-2-(4-phenylpiperazin-1-yl)benzamide], the pIC50 (TrkB) was 8.09, the pIC50 (TrkC) was 8.07 and the pIC50 (TrkA) was 7.82.
Work on `CNC(=O)c1ccc(-c2cc(OC3CCOCC3)c3c(N)n[nH]c3c2)cc1N1CCN(c2ccccc2)CC1` [Example 30, 4-[3-amino-4-(tetrahydro-2H-pyran-4-yloxy)-1H-indazol-6-yl]-N-methyl-2-(4-phenylpiperazin-1-yl)benzamide] yielded a pIC50 (TrkB) of 8.82, a pIC50 (TrkC) of 8.82 and a pIC50 (TrkA) of 7.98.
For `CNC(=O)c1ccc(-c2cc(OC(C)C(F)(F)F)c3c(N)n[nH]c3c2)cc1N1CCN(C2CC2)CC1` (centres unmarked) [Example 34, 4-{3-amino-4-[(1,1,1-trifluoropropan-2-yl)oxy]-1H-indazol-6-yl}-2-(4-cyclopropylpiperazin-1-yl)-N-methylbenzamide], the pIC50 (TrkB) was 6.48, the pIC50 (TrkC) was 6.50 and the pIC50 (TrkA) was 6.50.
With `CNC(=O)c1ccc(-c2cc(OC3CCOCC3)c3c(C)n[nH]c3c2)cc1N1CCN(C(=O)CC(C)C)CC1` [Example 160, N-methyl-2-[4-(3-methylbutanoyl)piperazin-1-yl]-4-[3-methyl-4-(tetrahydro-2H-pyran-4-yloxy)-1H-indazol-6-yl]benzamide] the pIC50 (TrkA) was 7.23.
For `Cc1n[nH]c2cc(-c3cncc(N4CCN(c5ccccc5)CC4)c3)cc(OC3CCCC3)c12` [Example 161, 4-(cyclopentyloxy)-3-methyl-6-[5-(4-phenylpiperazin-1-yl)pyridin-3-yl]-1H-indazole], the pIC50 (TrkA) was 7.13.
`Cc1n[nH]c2cc(-c3ccc(NS(C)(=O)=O)c(N4CCN(C(=O)OC(C)(C)C)CC4)c3)cc(OC3CCOCC3)c12` [Example 162, tert-butyl 4-{2-[(methylsulfonyl)amino]-5-[3-methyl-4-(tetrahydro-2H-pyran-4-yloxy)-1H-indazol-6-yl]phenyl}piperazine-1-carboxylate] showed a pIC50 (TrkA) of 7.55.
`CNC(=O)c1ccc(-c2cc(OC3CCOCC3)c3c(C)n[nH]c3c2)cc1N1CCN(C(=O)OC(C)C(F)(F)F)CC1` (centres unmarked) [Example 163, 1,1,1-trifluoropropan-2-yl 4-{2-(methylcarbamoyl)-5-[3-methyl-4-(tetrahydro-2H-pyran-4-yloxy)-1H-indazol-6-yl]phenyl}piperazine-1-carboxylate] gave a pIC50 (TrkA) of 6.77.
For `CNC(=O)c1ccc(-c2cc(OC3CCOCC3)c3c(C)n[nH]c3c2)cc1N1CCN(C(=O)CC2CC2)CC1` [Example 164, 2-[4-(cyclopropylacetyl)piperazin-1-yl]-N-methyl-4-[3-methyl-4-(tetrahydro-2H-pyran-4-yloxy)-1H-indazol-6-yl]benzamide], the pIC50 (TrkA) was 8.06.
`CNC(=O)c1ccc(-c2cc(OC3CCOCC3)c3c(C)n[nH]c3c2)cc1N1CCN(c2ncc(F)cn2)CC1` [Example 165, 2-[4-(5-fluoropyrimidin-2-yl)piperazin-1-yl]-N-methyl-4-[3-methyl-4-(tetrahydro-2H-pyran-4-yloxy)-1H-indazol-6-yl]benzamide] gave a pIC50 (TrkA) of 5.98.
Work on `Cc1n[nH]c2cc(-c3ccc(C(N)=O)c(N4CC5(CN(CC(F)(F)F)C5)C4)c3)cc(OC3CCOCC3)c12` [Example 166, 4-[3-methyl-4-(tetrahydro-2H-pyran-4-yloxy)-1H-indazol-6-yl]-2-[6-(2,2,2-trifluoroethyl)-2,6-diazaspiro[3.3]hept-2-yl]benzamide] yielded a pIC50 (TrkA) of 5.98.
For `CNC(=O)c1ccc(-c2cc(OC3CCOCC3)c3c(N)n[nH]c3c2)cc1N1CCN(CC(F)(F)C(F)F)CC1` [Example 167, 4-[3-amino-4-(tetrahydro-2H-pyran-4-yloxy)-1H-indazol-6-yl]-N-methyl-2-[4-(2,2,3,3-tetrafluoropropyl)piperazin-1-yl]benzamide], the pIC50 (TrkA) was 7.94.
`CNC(=O)c1ccc(-c2cc(OC3CCOCC3)c3c(N)n[nH]c3c2)cc1N1CCN(CCC(F)(F)F)CC1` [Example 168, 4-[3-amino-4-(tetrahydro-2H-pyran-4-yloxy)-1H-indazol-6-yl]-N-methyl-2-[4-(3,3,3-trifluoropropyl)piperazin-1-yl]benzamide] was tested, and the pIC50 (TrkA) was 7.94.
Work on `CNC(=O)c1ccc(-c2cc(OC3CCOCC3)c3c(N)n[nH]c3c2)cc1N1CCN(CC(F)F)CC1` [Example 169, 4-[3-amino-4-(tetrahydro-2H-pyran-4-yloxy)-1H-indazol-6-yl]-2-[4-(2,2-difluoroethyl)piperazin-1-yl]-N-methylbenzamide] yielded a pIC50 (TrkA) of 7.42.
Molecule `CNC(=O)c1ccc(-c2cc(OC3CCOCC3)c3c(N)n[nH]c3c2)cc1N1CCN(CC(F)(F)C(F)(F)F)CC1` [Example 170, 4-[3-amino-4-(tetrahydro-2H-pyran-4-yloxy)-1H-indazol-6-yl]-N-methyl-2-[4-(2,2,3,3,3-pentafluoropropyl)piperazin-1-yl]benzamide] has a pIC50 (TrkA) of 7.75.
Work on `CNC(=O)c1ccc(-c2cc(OC3CCOCC3)c3c(N)n[nH]c3c2)cc1N1CCN(CC2CC(F)(F)C2)CC1` [Example 171, 4-[3-amino-4-(tetrahydro-2H-pyran-4-yloxy)-1H-indazol-6-yl]-2-{4-[(3,3-difluorocyclobutyl)methyl]piperazin-1-yl}-N-methylbenzamide] yielded a pIC50 (TrkA) of 8.26.
In the case of `CNC(=O)c1ccc(-c2cc(OC3CCOCC3)c3c(N)n[nH]c3c2)cc1N1CCN(CC(C)(F)F)CC1` [Example 172, 4-[3-amino-4-(tetrahydro-2H-pyran-4-yloxy)-1H-indazol-6-yl]-2-[4-(2,2-difluoropropyl)piperazin-1-yl]-N-methylbenzamide], the pIC50 (TrkA) was 7.66.
Work on `CNC(=O)c1ccc(-c2cc(OC3CCOCC3)c3c(N)n[nH]c3c2)cc1N1CCN(CC2CC2(F)F)CC1` (centres unmarked) [Example 173, 4-[3-amino-4-(tetrahydro-2H-pyran-4-yloxy)-1H-indazol-6-yl]-2-{4-[(2,2-difluorocyclopropyl)methyl]piperazin-1-yl}-N-methylbenzamide] yielded a pIC50 (TrkA) of 7.79.
